From ChEMBL document CHEMBL3351501, “Inhibition of pseudolysin and thermolysin by hydroxamate-based MMP inhibitors” (Eur J Med Chem, 2015) come the findings set out here.

As a reminder, the IC50 is the point on the concentration scale where inhibition reaches its midpoint.

Test [1] is described as follows: Inhibition of Bacillus thermoproteolyticus thermolysin using Mca-Arg-Pro-Pro-Gly-Phe-Ser-Ala-Phe-Lys-(Dnp)-OH as substrate after 1 hr by fluorescence assay in presence of Brij-35.
Test [2] addresses T1, Elastase (Pseudomonas aeruginosa (strain ATCC 15692 / PAO1 / 1C / PRS 101 / LMG12228), UniProt P14756). Put plainly: Inhibition of Pseudomonas aeruginosa pseudolysin using Abz-Ala-Gly-Leu-Ala-p-nitrobenzylamide as substrate after 15 mins.
Test [3] concerns the target T1, Elastase. Nature of the test: Inhibition of Pseudomonas aeruginosa pseudolysin using Mca-Arg-Pro-Pro-Gly-Phe-Ser-Ala-Phe-Lys-(Dnp)-OH as substrate after 1 hr by fluorescence assay in presence of Brij-35.

A value given as a limit tells only on which side of the number the result lay.

T1 sequence (P14756 whole entry): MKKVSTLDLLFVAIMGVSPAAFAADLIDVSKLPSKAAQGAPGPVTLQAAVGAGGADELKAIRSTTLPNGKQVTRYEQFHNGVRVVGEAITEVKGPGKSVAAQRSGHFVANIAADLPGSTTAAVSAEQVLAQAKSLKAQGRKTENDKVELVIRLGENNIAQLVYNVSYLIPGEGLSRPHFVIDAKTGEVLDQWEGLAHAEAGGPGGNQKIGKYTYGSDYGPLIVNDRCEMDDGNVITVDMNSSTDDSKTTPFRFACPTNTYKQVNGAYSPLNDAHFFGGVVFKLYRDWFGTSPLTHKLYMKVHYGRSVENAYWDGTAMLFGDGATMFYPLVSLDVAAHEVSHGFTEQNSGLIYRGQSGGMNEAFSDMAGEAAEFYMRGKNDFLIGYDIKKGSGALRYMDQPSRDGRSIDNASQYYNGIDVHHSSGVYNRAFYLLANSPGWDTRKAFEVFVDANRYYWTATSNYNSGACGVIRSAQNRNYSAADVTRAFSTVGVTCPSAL

On to `COc1ccc(S(=O)(=O)N(CC(=O)O)CC(=O)NCCc2ccc(S(N)(=O)=O)cc2)cc1`, for which the values for the IC50 (in test [1]; at Elastase [2]) were 637 µM and more than 282 µM, respectively.
Take `COc1ccc(S(=O)(=O)N(CC(=O)NO)CC(=O)NCCc2ccc(S(N)(=O)=O)cc2)cc1`: the values for the IC50 (in test [1]; at Elastase [3]; against Elastase [2]) were 164 µM, 33 µM and 15 µM, respectively.
For `NS(=O)(=O)c1ccc(CCNC(=O)CN(CC(=O)NO)S(=O)(=O)c2ccc(Oc3ccccc3)cc2)cc1`, in that order: 160 µM, 276 µM and 16 µM.
In the case of `NS(=O)(=O)c1ccc(CCNC(=O)CN(CC(=O)NO)S(=O)(=O)c2ccc(-c3ccccc3)cc2)cc1`, the IC50 in test [1] was 67 µM; on Elastase [2], 31 µM.
Consider `NS(=O)(=O)c1ccc(CCNC(=O)CN(CC(=O)NO)Cc2ccccc2)cc1`, for which the IC50 in test [1] worked out at 12 µM; against Elastase [2], 0.4 µM.
For `O=C(O)CN(CC(=O)NO)Cc1ccc([N+](=O)[O-])cc1`, in that order: 755 µM and 20 µM.
For `O=C(O)CN(CC(=O)NO)Cc1ccc(-c2ccccc2)cc1`, in that order: more than 1000 µM and more than 121 µM.
For the compound `O=C(O)CN(CC(=O)NO)Cc1ccc(Oc2ccccc2)cc1`, the IC50 in test [1] is 524 µM; at Elastase [3], 430 µM; at Elastase [2], more than 200 µM.
For `O=C(O)CN(CC(=O)NO)S(=O)(=O)c1ccc(-c2ccccc2)cc1`, in that order: 440 µM, 241 µM and more than 150 µM.
In the case of `O=C(O)CN(CC(=O)NO)NCCCN1CCN(c2ccccc2)CC1`, the IC50 in test [1] was more than 1000 µM; at Elastase [2], more than 330 µM.
For `O=C(CN(CC(=O)NCCCN1CCN(c2ccccc2)CC1)Cc1ccccc1)NO`, the IC50 stood at 8 µM in test [1], 2.8 µM at Elastase [3] and 6.7 µM against Elastase [2].
For `O=C(O)CN(CC(=O)NO)S(=O)(=O)c1ccc(Oc2ccccc2)cc1`, in that order: 114 µM, 46 µM and more than 186 µM.
For `COc1ccc(S(=O)(=O)N(CC(=O)O)CC(=O)NO)cc1`, in that order: 270 µM, 153 µM and 169 µM.
For the compound `CC(C)[C@H](C(=O)NO)N(CC(=O)O)S(=O)(=O)c1ccc(Oc2ccccc2)cc1`, the IC50 is more than 1000 µM in test [1], 336 µM on Elastase [3] and 82 µM against Elastase [2].
